{"source": "patent US10307425B2", "about": "“Compositions and methods for treating toxoplasmosis, cryptosporidiosis and other apicomplexan protozoan related diseases” (UNIVERSITY OF WASHINGTON, priority 2015, dated 2019)", "key": {"N. caninum [1]": {"test_system": "N. caninum", "test": "Treatment of non-pregnant and pregnant Balb/c mice infected with N. caninum", "type": "in vivo, Neospora caninum"}, "N. caninum [2]": {"test_system": "N. caninum", "test": "N. caninum in vitro cultures", "type": "cell-based, Neospora caninum"}, "SnCDPK1": {"test_system": "SnCDPK1", "test": "Recombinant SnCDPK1 inhibition", "type": "biochemical, Sarcocystis neurona"}, "in vivo": {"test": "in vivo", "conditions": "BALB/c, mouse, po, 10 mg/kg"}, "Besnoitia besnoiti": {"test_system": "Besnoitia besnoiti", "test": "Besnoitia besnoiti in vitro activity", "type": "cell-based"}, "S. neurona merozoites": {"test_system": "S. neurona merozoites", "test": "S. neurona growth assay (yellow fluorescent protein-expressing clone)", "conditions": "Sarcocystis neurona, read-out: S. neurona EC50"}, "BbCDPK1": {"molecular_target": "BbCDPK1 (Besnoitia besnoiti, UniProt A0A290U7L2)", "sequence (A0A290U7L2 1-497)": "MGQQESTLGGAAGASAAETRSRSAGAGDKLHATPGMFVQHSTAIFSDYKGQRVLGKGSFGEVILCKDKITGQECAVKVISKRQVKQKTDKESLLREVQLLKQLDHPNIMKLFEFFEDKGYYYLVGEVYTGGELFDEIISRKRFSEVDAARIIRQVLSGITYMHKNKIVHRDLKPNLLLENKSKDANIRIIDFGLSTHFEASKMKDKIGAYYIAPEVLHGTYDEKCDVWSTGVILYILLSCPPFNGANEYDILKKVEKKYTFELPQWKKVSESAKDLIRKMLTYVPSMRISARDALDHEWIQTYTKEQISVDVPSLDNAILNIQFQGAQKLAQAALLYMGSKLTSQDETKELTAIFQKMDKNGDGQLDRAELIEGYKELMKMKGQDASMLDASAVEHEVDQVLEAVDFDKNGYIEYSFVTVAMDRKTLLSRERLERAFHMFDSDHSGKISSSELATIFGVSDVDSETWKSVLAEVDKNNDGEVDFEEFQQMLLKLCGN", "test": "BbCDPK1 inhibition", "type": "biochemical"}}, "data": [{"compound": "CCOc1ccc2cc(-c3nn(CC4CCN(C)CC4)c4ncnc(N)c34)ccc2c1", "note": "[Compound 150]", "values": [{"measurement": "treatment of N. caninum infected mice", "setting": "N. caninum [1]", "value": "treats infected mice and rids of N. caninum infection in brain and fetuses"}, {"measurement": "activity against N. caninum in vitro", "setting": "N. caninum [2]", "value": "effective in treating N. caninum in vitro"}, {"measurement": "IC50", "setting": "SnCDPK1", "value": 5.9, "unit": "nM"}, {"measurement": "Cmax", "setting": "in vivo", "value": "750 ± 150", "unit": "nM"}, {"measurement": "B. besnoiti EC100", "setting": "Besnoitia besnoiti", "value": 2.580, "unit": "µM"}, {"measurement": "EC50", "setting": "Besnoitia besnoiti; Besnoitia besnoiti, read-out: B. besnoiti EC50", "value": 45, "unit": "nM"}, {"measurement": "EC50", "setting": "S. neurona merozoites", "value": 68, "unit": "nM"}, {"measurement": "IC50", "setting": "BbCDPK1", "value": 4, "unit": "nM"}]}]}
